Results reported in the supplement of paper PMC10627819.

Legend:
Experiment in all cases: Bliss interaction score (quartile over a dose matrix) (fitness difference); higher = more antagonism (negative = synergy)
S. aureus Newman = test system: S. aureus Newman
Summary of the method: (§1)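 The Bliss score is observed fitness minus expected fitness, where the expected value is the product of single-drug fitness values inferred from combination data. Fitness is OD595 at entry into stationary phase normalised to the plate's robust no-drug mean and capped at 1. Scores are reported as quartiles spanning technical, biological and donor/recipient replicates.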

S. pneumoniae D39V = test system: S. pneumoniae D39V
Summary of the method: as §1

S. aureus DSM 20231 = test system: S. aureus DSM 20231
Summary of the method: as §1

B. subtilis 168 = test system: B. subtilis 168
Summary of the method: as §1
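Also: first quartile when negative (synergy) and third quartile when positive (antagonism).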

SMILES	Bliss interaction score (S. aureus Newman; main component drawn)	Bliss interaction score (S. pneumoniae D39V; main component drawn)	Bliss interaction score (S. aureus DSM 20231; main component drawn)	Bliss interaction score (B. subtilis 168; main component drawn)	Bliss interaction score (S. aureus Newman)	Bliss interaction score (S. pneumoniae D39V)	Bliss interaction score (S. aureus DSM 20231)	Bliss interaction score (B. subtilis 168)
CO[C@@]12[C@H](COC(N)=O)C3=C(C(=O)C(C)=C(N)C3=O)N1C[C@@H]1N[C@@H]12 [MitomycinC] + CCCCCCCCCC(=O)N[C@@H]1[C@H]([C@@H]([C@H](O[C@H]1OC2=C3C=C4C=C2OC5=C(C=C(C=C5)[C@H]([C@H]6C(=O)N[C@@H](C7=C(C(=CC(=C7)O)OC8[C@H]([C@H]([C@@H]([C@H](O8)CO)O)O)O)C9=C(C=CC(=C9)[C@H](C(=O)N6)NC(=O)[C@@H]4NC(=O)[C@@H]1C2=CC(=CC(=C2)OC2=C(C=CC(=C2)[C@H](C(=O)N[C@H](CC2=CC(=C(O3)C=C2)Cl)C(=O)N1)N)O)O)O)C(=O)O)O[C@H]1[C@@H]([C@H]([C@@H]([C@H](O1)CO)O)O)NC(=O)C)Cl)CO)O)O [Teicoplanin]	-0.228	-0.0795	-0.126	-0.0487				
CO[C@@]12[C@H](COC(N)=O)C3=C(C(=O)C(C)=C(N)C3=O)N1C[C@@H]1N[C@@H]12 [MitomycinC] + CCN(CC)CCOC(=O)c1ccc(N)cc1 [Procaine]					0.0275	0.0639	0.0322	0.0575
CO[C@@]12[C@H](COC(N)=O)C3=C(C(=O)C(C)=C(N)C3=O)N1C[C@@H]1N[C@@H]12 [MitomycinC] + CC[C@H]1OC(=O)[C@H](C)C(=O)[C@H](C)[C@@H](O[C@@H]2O[C@H](C)C[C@H](N(C)C)[C@H]2O)[C@](C)(OC)C[C@@H](C)C(=O)[C@H](C)[C@H]2N(CCCCn3cnc(-c4cccnc4)c3)C(=O)O[C@]12C [Telithromycin]					-0.0269	-0.102	-0.0567	0.0694
CO[C@@]12[C@H](COC(N)=O)C3=C(C(=O)C(C)=C(N)C3=O)N1C[C@@H]1N[C@@H]12 [MitomycinC] + CN1C2=CC=CC=C2N=C3C1=CC=CC3=O [Pyocyanin]					-0.0681	0.0705	0.0464	0.0608
CO[C@@]12[C@H](COC(N)=O)C3=C(C(=O)C(C)=C(N)C3=O)N1C[C@@H]1N[C@@H]12 [MitomycinC] + CN(C)c1cc(NC(=O)CNC(C)(C)C)c(O)c2c1C[C@H]1C[C@H]3[C@H](N(C)C)C(O)=C(C(N)=O)C(=O)[C@@]3(O)C(O)=C1C2=O [Tigecycline]					-0.0488	0.0464	0.0285	0.245
CO[C@@]12[C@H](COC(N)=O)C3=C(C(=O)C(C)=C(N)C3=O)N1C[C@@H]1N[C@@H]12 [MitomycinC] + CN(N=O)C(=O)N[C@@H](C=O)[C@@H](O)[C@H](O)[C@H](O)CO [Streptozotocin]					0.0483	-0.0613	0.0493	-0.037
CO[C@@]12[C@H](COC(N)=O)C3=C(C(=O)C(C)=C(N)C3=O)N1C[C@@H]1N[C@@H]12 [MitomycinC] + CN[C@@H]1[C@H](O)[C@H](NC)[C@H]2O[C@@]3(O)C(=O)C[C@@H](C)O[C@H]3O[C@@H]2[C@H]1O [Spectinomycin]					-0.0974	-0.06	0.0772	0.0749
CO[C@@]12[C@H](COC(N)=O)C3=C(C(=O)C(C)=C(N)C3=O)N1C[C@@H]1N[C@@H]12 [MitomycinC] + CN[C@@H]1[C@H](O[C@H]2[C@H](O[C@H]3[C@H](O)[C@@H](O)[C@H](N=C(N)N)[C@@H](O)[C@@H]3N=C(N)N)O[C@@H](C)[C@]2(O)C=O)O[C@@H](CO)[C@H](O)[C@H]1O [Streptomycin]					-0.078	-0.072	-0.117	-0.21
CO[C@@]12[C@H](COC(N)=O)C3=C(C(=O)C(C)=C(N)C3=O)N1C[C@@H]1N[C@@H]12 [MitomycinC] + CN[C@H](CC(C)C)C(=O)N[C@H]1C(=O)N[C@@H](CC(N)=O)C(=O)N[C@H]2C(=O)N[C@H]3C(=O)N[C@H](C(=O)N[C@H](C(=O)O)c4cc(O)cc(O)c4-c4cc3ccc4O)[C@H](O)c3ccc(c(Cl)c3)Oc3cc2cc(c3O[C@@H]2O[C@H](CO)[C@@H](O)[C@H](O)[C@H]2O[C@H]2C[C@](C)(N)[C@H](O)[C@H](C)O2)Oc2ccc(cc2Cl)[C@H]1O [Vancomycin]					-0.0526	0.124	0.0497	0.0157
CO[C@@]12[C@H](COC(N)=O)C3=C(C(=O)C(C)=C(N)C3=O)N1C[C@@H]1N[C@@H]12 [MitomycinC] + CN[C@H](CC(C)C)C(=O)N[C@H]1C(=O)N[C@@H](CC(N)=O)C(=O)N[C@H]2C(=O)N[C@H]3C(=O)N[C@H](C(=O)N[C@H](C(=O)O)c4cc(O)cc(O)c4-c4cc3ccc4O)[C@H](O[C@H]3C[C@](C)(N)[C@@H](O)[C@H](C)O3)c3ccc(c(Cl)c3)Oc3cc2cc(c3O[C@@H]2O[C@H](CO)[C@@H](O)[C@H](O)[C@H]2O[C@H]2C[C@](C)(NCc3ccc(-c4ccc(Cl)cc4)cc3)[C@@H](O)[C@H](C)O2)Oc2ccc(cc2Cl)[C@H]1O [Oritavancin]					0.0841	-0.0514	-0.0806	0.017
CO[C@@]12[C@H](COC(N)=O)C3=C(C(=O)C(C)=C(N)C3=O)N1C[C@@H]1N[C@@H]12 [MitomycinC] + CO[C@@H]1[C@@H](OC(N)=O)[C@@H](O)[C@H](Oc2ccc3c(O)c(NC(=O)c4ccc(O)c(CC=C(C)C)c4)c(=O)oc3c2C)OC1(C)C [Novobiocin]					-0.137	-0.11	-0.0588	-0.117
CO[C@@]12[C@H](COC(N)=O)C3=C(C(=O)C(C)=C(N)C3=O)N1C[C@@H]1N[C@@H]12 [MitomycinC] + CO[C@H]1/C=C/O[C@@]2(C)Oc3c(C)c(O)c4c(O)c(c(/C=N/N5CCN(C)CC5)c(O)c4c3C2=O)NC(=O)/C(C)=C\C=C\[C@H](C)[C@H](O)[C@@H](C)[C@@H](O)[C@@H](C)[C@H](OC(C)=O)[C@@H]1C [Rifampicin]					-0.0175	-0.117	-0.0914	0.155
CO[C@@]12[C@H](COC(N)=O)C3=C(C(=O)C(C)=C(N)C3=O)N1C[C@@H]1N[C@@H]12 [MitomycinC] + COc1c(N2C[C@@H]3CCCN[C@@H]3C2)c(F)cc2c(=O)c(C(=O)O)cn(C3CC3)c12 [Moxifloxacin]					-0.099	0.056	0.07	0.0263
CO[C@@]12[C@H](COC(N)=O)C3=C(C(=O)C(C)=C(N)C3=O)N1C[C@@H]1N[C@@H]12 [MitomycinC] + COc1cc(Cc2cnc(N)nc2N)cc(OC)c1OC [Trimethoprim]					-0.127	-0.141	-0.102	-0.108
CO[C@@]12[C@H](COC(N)=O)C3=C(C(=O)C(C)=C(N)C3=O)N1C[C@@H]1N[C@@H]12 [MitomycinC] + COc1ccc(C[C@H](N)C(=O)N[C@H]2[C@@H](O)[C@H](n3cnc4c(N(C)C)ncnc43)O[C@@H]2CO)cc1 [Puromycin]					0.0521	0.0762	0.0528	-0.0693
CO[C@@]12[C@H](COC(N)=O)C3=C(C(=O)C(C)=C(N)C3=O)N1C[C@@H]1N[C@@H]12 [MitomycinC] + C[n+]1ccc(-c2cc[n+](C)cc2)cc1 [Paraquat]					0.04	-0.0446	-0.0406	0.0434
CO[C@@]12[C@H](COC(N)=O)C3=C(C(=O)C(C)=C(N)C3=O)N1C[C@@H]1N[C@@H]12 [MitomycinC] + Cc1cc(NS(=O)(=O)c2ccc(N)cc2)no1 [Sulfamethoxazol]					0.0863	-0.0583	0.036	0.082
CO[C@@]12[C@H](COC(N)=O)C3=C(C(=O)C(C)=C(N)C3=O)N1C[C@@H]1N[C@@H]12 [MitomycinC] + Cc1onc(-c2ccccc2)c1C(=O)N[C@@H]1C(=O)N2[C@@H]1SC(C)(C)[C@@H]2C(=O)O [Oxacillin]					0.046	0.0896	0.0499	-0.0799
CO[C@@]12[C@H](COC(N)=O)C3=C(C(=O)C(C)=C(N)C3=O)N1C[C@@H]1N[C@@H]12 [MitomycinC] + Cn1nnc(-c2ccc(-c3ccc(N4C[C@H](CO)OC4=O)cc3F)cn2)n1 [Tedizolid]					-0.0886	-0.124	-0.0817	0.0705
CO[C@@]12[C@H](COC(N)=O)C3=C(C(=O)C(C)=C(N)C3=O)N1C[C@@H]1N[C@@H]12 [MitomycinC] + O=C1CN(/N=C/c2ccc([N+](=O)[O-])o2)C(=O)N1 [Nitrofurantoin]					-0.0345	-0.145	-0.0298	-0.0788
CO[C@@]12[C@H](COC(N)=O)C3=C(C(=O)C(C)=C(N)C3=O)N1C[C@@H]1N[C@@H]12 [MitomycinC] + Oc1cc(Cl)ccc1Oc1ccc(Cl)cc1Cl [Triclosan]					-0.0343	0.0578	-0.025	-0.0544
CO[C@@H]1[C@@H](OC(N)=O)[C@@H](O)[C@H](Oc2ccc3c(O)c(NC(=O)c4ccc(O)c(CC=C(C)C)c4)c(=O)oc3c2C)OC1(C)C [Novobiocin] + C/C(=C\C(=O)OCCCCCCCCC(=O)O)C[C@@H]1OC[C@H](C[C@@H]2O[C@H]2[C@@H](C)[C@H](C)O)[C@@H](O)[C@H]1O [Pseudomonic acid]					-0.0166	0.241	-0.0173	-0.0516
